One series concerns the target wild type c-kit (Homo sapiens (Human), UniProt P10721). The series is described as follows: PathScan phospho c-kit (Tyr719) sandwich ELISA in SCF-stimulated M-07e cells (pKIT assay). The series is classed as cell-based. Conditions: ELISA assay (values not marked *). Put shortly: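 Tyr719-phosphorylated c-kit was measured by colorimetric (TMB) sandwich ELISA in lysates of M-07e cells. Cells were starved 4 h without serum or GM-CSF, dosed 60 min at 37 °C with compound (8 points, duplicate, 0.25% DMSO), and stimulated 10 min with human SCF (500 ng/mL as added). IC50 values came from 4-parameter logistic regression.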
Background: An ELISA detects its analyte on a solid surface through an enzyme-linked reagent.

Series [1] concerns the target human P-glycoprotein (P-gp, MDR1) (Homo sapiens (Human), UniProt P08183). The experiment in a line: MDCK-MDR1 cell monolayer drug transport assay (P-gp efflux ratio). The series is classed as in vitro ADME. Conditions: pH 7.4, MDCK-MDR1 cells; for efflux ratio at 2 h, 1 µM: 1 uM concentration of compound, read-out: Pgp Efflux Ratio, 1 uM; for efflux ratio at 2 h, 0.1 µM: 0.1 uM concentration of compound (denoted by **), read-out: Pgp Efflux Ratio. The protocol:
The potential for compounds prepared according to the examples to be substrates of P-gp was evaluated using in vitro on Multidrug Resistance Mutation 1-Mardin-Darby Canine Kidney (MDCK-MDR1)) (Mardin-Darby Canine Kidney) cell monolayers overexpressing P-gp grown on permeable supports.
Preparation for cell seeding: MDCK-MDR1 cell culture medium consisting of Dulbecco's Modified Eagle's Medium (DMEM) with high glucose and L-glutamine supplemented with: 10% FBS, 0.1 mg/mL of streptomycin, 0.6 μg/mL of Kanamycin sulfate and 100 units of penicillin was prepared. 50 μL of culture medium was added to each well of the Transwell insert. The Transwell insert was removed from the reservoir and 25 mL of culture medium was added. After incubation at 37° C., 5% CO2 for 1 hour, the plates were ready for cell seeding. The cells were cultivated in T-75 flasks in a cell culture incubator set at 37° C., 5% CO2, 95% relative humidity until they reached 80-90% confluence before detaching and splitting. The cultivated cells were rinsed in T-75 flasks with 5 mL PBS and aspirated off, and then 1.5 mL trypsin/EDTA was added and incubated at 37° C. for approximately 5 to 10 minutes or until the cells detach and float. The trypsin/EDTA was inactived by adding excess serum containing medium. The cell suspension was transferred to a conical tube and the cells pelleted by centrifugation at 120×g for 10 minutes. The cells were resuspended in seeding medium at a density of 1.56×10^6 cells/mL. This cell concentration was used to seed 5.45×10^5 cells/cm^2.
Seeding and feeding of MDCK-MDR1 cells into transwell plates: 50 μL of the above cell suspension was added to each well of a previously prepared Transwell plate and the plate was incubated for 4-8 days, replacing the medium every other day beginning no sooner than 48 hours after initial plating. The medium must be replaced on the day before conducting the experiment, and the procedure for medium changes was carried out as follows. The plate was removed from the incubator and placed in a hood. The medium was aspirated from a reservoir and each Transwell was inserted. 100 μL of culture medium was added to each well of the Transwell inserts and 25 mL of culture medium to reservoir tray. The plate was returned to the incubator.
Assessment of cell monolayer integrity: When the 4-day cultured MDCK-MDR1 cells reached confluence and were differentiated, the medium was removed from the reservoir and Transwell inserts. 100 μL of prewarmed culture medium was added to each transwell insert and 25 mL was added to the reservoir tray. The electrical resistance across the monolayer was measured using a Millicell Epithelial Volt-Ohm measuring system. The electrical resistance for each well was measured and then the plate was returned to the incubator. TEER values were calculated using this formula: TEER measurement (ohms)×Area of membrane (cm2)=TEER value (ohm cm2). Any monolayer with a TEER value <42 ohms·cm2, indicating poor monolayer formation, was discarded.
Performing the drug transport assay: The MDCK-MDR1 plate was removed from the incubator and the monolayer was washed, exchanging the volume two times using pre-warmed HBSS (Hank's balanced salt solution) (10 mM HEPES, pH 7.4). The plate was then incubated at 37° C. for 30 minutes. A 1 μM compound working solution was prepared as follows: Added […] of stock solution (10 mM in DMSO) of test compound and control compounds (Metoprolol, Prazosin and Imatinib) in one 96 well plate, then added 98 μL of DMSO into the same well to obtain 0.2 mM stock solutions (note a stock solution was further diluted 1:10 for eventually making a 0.1 uM compound working solution). Transfered 3 μL of 0.2 mM solution into 597 μL of transport buffer in one 96 well plate to prepare the 1 μM compound working solution. The plate was shaken at 1000 rpm for 10 min.

This passage reports IC50 and efflux ratio results from patent US20240262826A1, “WILD TYPE KIT INHIBITORS” (Blueprint Medicines Corporation, priority 2022, published 2024).

Chain of human P-glycoprotein (P-gp, MDR1) (P08183 whole entry): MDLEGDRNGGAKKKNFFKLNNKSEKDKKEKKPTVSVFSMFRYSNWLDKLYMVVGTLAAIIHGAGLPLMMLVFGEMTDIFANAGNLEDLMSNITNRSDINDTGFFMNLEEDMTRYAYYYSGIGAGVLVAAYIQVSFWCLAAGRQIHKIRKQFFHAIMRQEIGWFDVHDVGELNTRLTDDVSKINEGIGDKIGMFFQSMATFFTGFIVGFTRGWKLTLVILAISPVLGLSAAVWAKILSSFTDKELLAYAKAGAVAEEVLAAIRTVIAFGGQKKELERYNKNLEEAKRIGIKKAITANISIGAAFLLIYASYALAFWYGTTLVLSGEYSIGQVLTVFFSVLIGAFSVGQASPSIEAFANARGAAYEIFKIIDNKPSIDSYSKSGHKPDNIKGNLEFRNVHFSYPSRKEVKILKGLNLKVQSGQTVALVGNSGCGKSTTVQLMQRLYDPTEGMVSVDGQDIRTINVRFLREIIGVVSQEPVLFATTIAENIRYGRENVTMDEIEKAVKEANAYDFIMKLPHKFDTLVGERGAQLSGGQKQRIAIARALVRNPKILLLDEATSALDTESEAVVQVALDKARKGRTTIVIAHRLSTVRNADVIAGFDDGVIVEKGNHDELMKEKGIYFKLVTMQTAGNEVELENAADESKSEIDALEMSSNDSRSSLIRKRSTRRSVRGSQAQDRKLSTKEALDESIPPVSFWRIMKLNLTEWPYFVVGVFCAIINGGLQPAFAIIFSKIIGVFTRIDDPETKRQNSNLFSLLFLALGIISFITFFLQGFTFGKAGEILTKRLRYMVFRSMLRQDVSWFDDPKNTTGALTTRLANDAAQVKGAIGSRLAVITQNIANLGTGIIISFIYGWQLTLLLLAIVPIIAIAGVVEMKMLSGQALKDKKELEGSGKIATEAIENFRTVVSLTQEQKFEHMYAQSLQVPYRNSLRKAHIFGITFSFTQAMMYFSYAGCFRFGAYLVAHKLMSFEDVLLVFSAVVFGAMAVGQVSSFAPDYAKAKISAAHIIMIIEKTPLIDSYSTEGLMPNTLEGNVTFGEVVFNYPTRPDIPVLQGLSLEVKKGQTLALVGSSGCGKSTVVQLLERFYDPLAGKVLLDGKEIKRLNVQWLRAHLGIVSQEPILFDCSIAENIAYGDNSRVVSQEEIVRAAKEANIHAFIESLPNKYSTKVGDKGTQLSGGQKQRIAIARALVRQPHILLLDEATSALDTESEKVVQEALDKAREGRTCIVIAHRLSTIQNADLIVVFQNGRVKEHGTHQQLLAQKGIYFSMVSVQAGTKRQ
Chain of wild type c-kit (P10721 26-976): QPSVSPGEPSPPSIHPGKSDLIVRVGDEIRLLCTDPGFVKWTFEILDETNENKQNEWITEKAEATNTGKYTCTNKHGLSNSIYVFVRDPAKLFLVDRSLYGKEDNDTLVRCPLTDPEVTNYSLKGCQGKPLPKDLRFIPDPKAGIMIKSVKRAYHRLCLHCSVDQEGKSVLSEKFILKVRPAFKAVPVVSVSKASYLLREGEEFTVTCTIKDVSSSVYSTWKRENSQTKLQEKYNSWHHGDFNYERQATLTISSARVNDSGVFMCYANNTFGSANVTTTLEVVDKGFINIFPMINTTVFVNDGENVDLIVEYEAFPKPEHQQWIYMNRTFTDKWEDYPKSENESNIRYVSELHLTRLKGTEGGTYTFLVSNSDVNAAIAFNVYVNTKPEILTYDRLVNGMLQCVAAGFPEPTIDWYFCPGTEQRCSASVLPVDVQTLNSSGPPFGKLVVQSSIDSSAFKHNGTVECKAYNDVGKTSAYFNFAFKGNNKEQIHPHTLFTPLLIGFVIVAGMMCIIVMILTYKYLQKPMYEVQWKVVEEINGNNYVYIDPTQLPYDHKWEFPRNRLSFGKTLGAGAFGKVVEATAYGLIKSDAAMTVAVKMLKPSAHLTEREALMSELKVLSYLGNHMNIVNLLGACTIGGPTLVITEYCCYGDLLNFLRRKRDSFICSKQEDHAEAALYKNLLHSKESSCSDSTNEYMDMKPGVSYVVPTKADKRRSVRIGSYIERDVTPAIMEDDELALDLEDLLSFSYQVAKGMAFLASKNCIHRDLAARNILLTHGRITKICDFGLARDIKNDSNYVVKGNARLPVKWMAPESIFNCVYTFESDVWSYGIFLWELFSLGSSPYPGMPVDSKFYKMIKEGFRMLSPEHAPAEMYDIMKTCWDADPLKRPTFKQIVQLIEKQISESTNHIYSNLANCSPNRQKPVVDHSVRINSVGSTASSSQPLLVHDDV

A word on the IC50: it is the concentration needed to halve the response being measured. Low readings indicate inhibition by little substance, high ones a need for much substance. In turn, `COC(=O)N1CC(n2nnc(-c3ccc(C)c(NC(=O)c4cnn5ccc(NCC(C)(C)O)cc45)c3)n2)C1` [Example 89, methyl 3-(5-(3-(5-((2-hydroxy-2-methylpropyl)amino)pyrazolo[1,5-a]pyridine-3-carboxamido)-4-methylphenyl)-2H-tetrazol-2-yl)azetidine-1-carboxylate] displayed an IC50 against wild type c-kit of 71 nM. Moreover, the efflux ratio at 2 h, 1 µM in series [1] is 43.1.

On wild type c-kit, `Cc1cc(F)c(-c2nnn([C@H]3C[C@@H](C(F)(F)F)C3)n2)cc1NC(=O)c1cnn2ccc(N3CC(C)(O)C3)cc12` [Example 64, N-(4-fluoro-2-methyl-5-(2-((1s,3s)-3-(trifluoromethyl)cyclobutyl)-2H-tetrazol-5-yl)phenyl)-5-(3-hydroxy-3-methylazetidin-1-yl)pyrazolo[1,5-a]pyridine-3-carboxamide] returned an IC50 of 3.7 nM. The efflux ratio at 2 h, 1 µM in series [1] was found to be 39.3.

As to `Cc1cc(C#N)c(-c2nnn(C3CC(F)(F)C3)n2)cc1NC(=O)c1cnn2ccc(N3CCOCC3)cc12` [Example 165, N-(4-cyano-5-(2-(3,3-difluorocyclobutyl)-2H-tetrazol-5-yl)-2-methylphenyl)-5-morpholinopyrazolo[1,5-a]pyridine-3-carboxamide], the IC50 at wild type c-kit was found to be 26.6 nM. Further, in series [1], the efflux ratio at 2 h, 1 µM came to 6.6.

As for `C[C@](O)(CO)Cn1cc(-c2ccn3ncc(C(=O)Nc4cc(-n5nnc([C@@H]6C[C@H]6F)n5)ccc4Cl)c3c2)cn1` (single isomer, unassigned) [Example 273, N-(2-chloro-5-(5-((1S,2R)-2-fluorocyclopropyl)-2H-tetrazol-2-yl)phenyl)-5-(1-((R)-2,3-dihydroxy-2-methylpropyl)-1H-pyrazol-4-yl)pyrazolo[1,5-a]pyridine-3-carboxamide or N-(2-chloro-5-(5-((1R,2S)-2-fluorocyclopropyl)-2H-tetrazol-2-yl)phenyl)-5-(1-((R)-2,3-dihydroxy-2-methylpropyl)-1H-pyrazol-4-yl)pyrazolo[1,5-a]pyridine-3-carboxamide], half-maximal inhibition at wild type c-kit (IC50) was put at 0.5 nM. Further, the efflux ratio at 2 h, 1 µM in series [1] was 4.9.

On to `Cc1cc(Cl)c(NC(=O)c2cnn3ccc(-c4cn(CC5(O)CCOCC5)nc4C)cc23)cc1-c1nnn(C2CC2)n1` [Example 235, N-(2-chloro-5-(2-cyclopropyl-2H-tetrazol-5-yl)-4-methylphenyl)-5-(1-((4-hydroxytetrahydro-2H-pyran-4-yl)methyl)-3-methyl-1H-pyrazol-4-yl)pyrazolo[1,5-a]pyridine-3-carboxamide], for which it took 1.6 nM to reach half-maximal inhibition against wild type c-kit (IC50). For the same compound, the efflux ratio at 2 h, 1 µM in series [1] is 3.9.

As for `Cc1ccc(-c2nnn(C3CC3)n2)cc1NC(=O)c1cnn2ccc(-c3cnn(CC4(O)CCOCC4)c3)cc12` [Example 206, N-(5-(2-cyclopropyl-2H-tetrazol-5-yl)-2-methylphenyl)-5-(1-((4-hydroxytetrahydro-2H-pyran-4-yl)methyl)-1H-pyrazol-4-yl)pyrazolo[1,5-a]pyridine-3-carboxamide], at wild type c-kit, the IC50 was 1.2 nM. In addition, the efflux ratio at 2 h, 1 µM in series [1] is 22.6.

On to `Cc1cc(F)c(-c2nnn(C3CC3)n2)cc1NC(=O)c1cnn2ccc(-c3cn(CC(C)(C)O)nc3C3CC3)cc12` [Example 241, 5-(3-cyclopropyl-1-(2-hydroxy-2-methylpropyl)-1H-pyrazol-4-yl)-N-(5-(2-cyclopropyl-2H-tetrazol-5-yl)-4-fluoro-2-methylphenyl)pyrazolo[1,5-a]pyridine-3-carboxamide], for which, on wild type c-kit, the IC50 was found to be 0.2 nM. The efflux ratio at 2 h, 0.1 µM in series [1] turned out to be 6.3.

In the case of `Cc1ccc(-c2nnn(C3CC(F)(F)C3)n2)cc1NC(=O)c1cnn2ccc(N3CC[C@@H](O)C3)cc12` [Example 78, (R)-N-(5-(2-(3,3-difluorocyclobutyl)-2H-tetrazol-5-yl)-2-methylphenyl)-5-(3-hydroxypyrrolidin-1-yl)pyrazolo[1,5-a]pyridine-3-carboxamide], half-maximal inhibition against wild type c-kit (IC50) was put at 9.6 nM. In series [1], the efflux ratio at 2 h, 1 µM was determined as 13.1.

On wild type c-kit, `Cc1nn(C[C@H]2CN(C)CCO2)c(C)c1-c1ccn2ncc(C(=O)Nc3cc(-c4nnn(C5CC5)n4)ccc3Cl)c2c1` [Example 274, (R)-N-(2-chloro-5-(2-cyclopropyl-2H-tetrazol-5-yl)phenyl)-5-(3,5-dimethyl-1-((4-methylmorpholin-2-yl)methyl)-1H-pyrazol-4-yl)pyrazolo[1,5-a]pyridine-3-carboxamide] showed an IC50 of 0.6 nM. Moreover, in series [1], the efflux ratio at 2 h, 1 µM was found to be 1.7.

Compound `COC(=O)N1CC(n2nnc(-c3ccc(C)c(NC(=O)c4cnn5ccc(N6CCOCC6)cc45)c3)n2)C1` [Example 69, methyl 3-(5-(4-methyl-3-(5-morpholinopyrazolo[1,5-a]pyridine-3-carboxamido)phenyl)-2H-tetrazol-2-yl)azetidine-1-carboxylate] returned an IC50 on wild type c-kit of 50.1 nM. The efflux ratio at 2 h, 1 µM in series [1] stood at 11.7.

Compound `Cc1nn(CC(C)(C)O)cc1-c1ccn2ncc(C(=O)Nc3cc(-c4nnn(C5CC5)n4)c(F)cc3Cl)c2c1` [Example 251, N-(2-chloro-5-(2-cyclopropyl-2H-tetrazol-5-yl)-4-fluorophenyl)-5-(1-(2-hydroxy-2-methylpropyl)-3-methyl-1H-pyrazol-4-yl)pyrazolo[1,5-a]pyridine-3-carboxamide] yielded an IC50 at wild type c-kit of 0.4 nM. The efflux ratio at 2 h, 0.1 µM in series [1] was determined as 1.8.

Turning to `Cc1ccc(-c2nnn(C3CC3)n2)cc1NC(=O)c1cnn2ccc(-c3cnn(CCCN4CCOCC4)c3)cc12` [Example 220, N-(5-(2-cyclopropyl-2H-tetrazol-5-yl)-2-methylphenyl)-5-(1-(3-morpholinopropyl)-1H-pyrazol-4-yl)pyrazolo[1,5-a]pyridine-3-carboxamide], the IC50 against wild type c-kit is 1.8 nM. In addition, the efflux ratio at 2 h, 1 µM in series [1] is 12.4.

For `Cc1nn(CCO)cc1-c1ccn2ncc(C(=O)Nc3cc(-c4nnn(C5CC5)n4)ccc3Cl)c2c1` [Example 238, N-[2-chloro-5-(2-cyclopropyl-2H-1,2,3,4-tetrazol-5-yl)phenyl]-5-[1-(2-hydroxyethyl)-3-methyl-1H-pyrazol-4-yl]pyrazolo[1,5-a]pyridine-3-carboxamide], the IC50 at wild type c-kit turned out to be 0.2 nM. In addition, the efflux ratio at 2 h, 0.1 µM in series [1] is 5.9.

The compound `COCCS(=O)(=O)N1CC(n2nnc(-c3ccc(C)c(NC(=O)c4cnn5ccccc45)c3)n2)C1` [Example 178, N-(5-(2-(1-((2-methoxyethyl)sulfonyl)azetidin-3-yl)-2H-tetrazol-5-yl)-2-methylphenyl)pyrazolo[1,5-a]pyridine-3-carboxamide] gave an IC50 at wild type c-kit of 17.6 nM. Besides, in series [1], the efflux ratio at 2 h, 1 µM turned out to be 4.7.

As to `COC(=O)N1CC(n2nnc(-c3ccc(C)c(NC(=O)c4cnn5ccc(NCCOC(C)(C)C)cc45)c3)n2)C1` [Example 93, methyl 3-(5-(3-(5-((2-(tert-butoxy)ethyl)amino)pyrazolo[1,5-a]pyridine-3-carboxamido)-4-methylphenyl)-2H-tetrazol-2-yl)azetidine-1-carboxylate], the IC50 on wild type c-kit amounted to 29 nM. Moreover, the efflux ratio at 2 h, 1 µM in series [1] is 11.4.
